Measurements as given in the CheMixHub viscosity set.

Test: xn = mol fraction of the nth substance listed

C=CCn1cc[n+](C)c1.O=S(=O)([N-]S(=O)(=O)C(F)(F)F)C(F)(F)F + CCCO
Conditions	viscosity [mPa·s]
313.15 K, 100 kPa, x1 = 0.8974	15.85

CCCCCCCCCO + CCCO
viscosity [mPa·s], 101 kPa
Conditions	298.15 K	308.15 K	318.15 K
x2 = 0.05	8.682	6.217	4.482
x2 = 0.1	8.263	5.92	4.293
x2 = 0.15	7.846	5.632	4.11
x2 = 0.2	7.432	5.351	3.929
x2 = 0.25	7.022	5.076	3.752
x2 = 0.3	6.618	4.806	3.575
x2 = 0.35	6.22	4.542	3.399
x2 = 0.4	5.83	4.282	3.223
x2 = 0.45	5.447	4.026	3.046
x2 = 0.5	5.073	3.774	2.869
x2 = 0.55	4.708	3.525	2.691
x2 = 0.6	4.352	3.279	2.514
x2 = 0.65	4.005	3.037	2.337
x2 = 0.7	3.668	2.798	2.161
x2 = 0.75	3.34	2.563	1.988
x2 = 0.8	3.022	2.332	1.819
x2 = 0.85	2.712	2.106	1.656
x2 = 0.9	2.412	1.884	1.5
x2 = 0.95	2.12	1.668	1.354

CC(=O)N(C)C + CCO
viscosity [mPa·s], 101 kPa
Conditions	298.15 K	303.15 K	308.15 K	313.15 K	318.15 K
x1 = 0.0653	–	0.9549	0.8702	0.8052	0.7371
x1 = 0.0809	–	0.944	–	–	–
x1 = 0.1358	0.9918	0.9129	0.8423	0.7795	0.716
x1 = 0.1399	–	0.915	–	–	–
x1 = 0.2001	–	0.894	–	–	–
x1 = 0.2123	0.9588	0.8868	0.8171	0.7631	0.7077
x1 = 0.2626	–	0.878	–	–	–
x1 = 0.2954	0.9368	0.8691	0.8034	0.7509	0.6996
x1 = 0.3738	–	0.865	–	–	–
x1 = 0.386	0.9289	0.8634	0.7995	0.751	0.6999
x1 = 0.4854	0.928	0.8622	0.8019	0.753	0.7022
x1 = 0.4935	–	0.861	–	–	–
x1 = 0.5947	0.9232	0.8595	0.7991	0.7552	0.7034
x1 = 0.5953	–	0.862	–	–	–
x1 = 0.6938	–	0.863	–	–	–
x1 = 0.7155	0.9273	0.8639	0.8093	–	0.7108
x1 = 0.7965	–	0.865	–	–	–
x1 = 0.8498	0.9421	0.8705	0.81	–	0.7156
x1 = 0.8971	–	0.867	–	–	–

CC(=O)N1CCOCC1 + CCO
viscosity [mPa·s], 101 kPa
Conditions	293.15 K	303.15 K	313.15 K	323.15 K
x1 = 0.0563	1.847	1.495	1.153	0.928
x1 = 0.1288	2.747	2.302	1.832	1.518
x1 = 0.2164	3.689	3.134	2.511	2.096
x1 = 0.2843	4.374	3.728	2.983	2.484
x1 = 0.3147	4.656	3.974	3.174	2.639
x1 = 0.3944	5.318	4.533	3.594	2.966
x1 = 0.4512	5.718	4.858	3.819	3.122
x1 = 0.4957	6.016	5.101	3.983	3.232
x1 = 0.5253	6.179	5.227	4.056	3.269
x1 = 0.5832	6.499	5.472	4.199	3.343
x1 = 0.6341	6.728	5.638	4.275	3.358
x1 = 0.6813	6.984	5.832	4.387	3.413
x1 = 0.7348	7.169	5.948	4.407	3.369
x1 = 0.7921	7.459	6.164	4.522	3.417
x1 = 0.8452	7.653	6.289	4.554	3.434
x1 = 0.9127	8.019	6.569	4.788	3.615
x1 = 0.9734	8.395	6.932	5.046	3.797

CC(N)=O + CCO
303.15 K, 101 kPa
Conditions	viscosity [mPa·s]
x1 = 0.0327	9.42
x1 = 0.0646	10
x1 = 0.0901	10.16
x1 = 0.1011	12.61

CCCCCCCCCO + CCO
viscosity [mPa·s], 101 kPa
Conditions	298.15 K	308.15 K	318.15 K
x2 = 0.05	8.632	6.193	4.473
x2 = 0.1	8.168	5.872	4.273
x2 = 0.15	7.706	5.558	4.073
x2 = 0.2	7.247	5.25	3.874
x2 = 0.25	6.791	4.945	3.675
x2 = 0.3	6.34	4.645	3.475
x2 = 0.35	5.893	4.347	3.275
x2 = 0.4	5.453	4.052	3.074
x2 = 0.45	5.019	3.759	2.871
x2 = 0.5	4.593	3.469	2.668
x2 = 0.55	4.176	3.182	2.465
x2 = 0.6	3.769	2.898	2.261
x2 = 0.65	3.375	2.619	2.059
x2 = 0.7	2.993	2.345	1.858
x2 = 0.75	2.627	2.078	1.66
x2 = 0.8	–	1.818	1.466
x2 = 0.85	1.946	1.569	1.277
x2 = 0.9	1.635	1.331	1.094
x2 = 0.95	1.346	1.108	0.9197

CCCCCCCCCO + CCOC(=O)OCC
101 kPa
Conditions	viscosity [mPa·s]
293.15 K, x1 = 0.008	0.816
293.15 K, x2 = 0.03967	9.964
293.15 K, x2 = 0.1094	7.69
293.15 K, x2 = 0.1857	5.899
293.15 K, x2 = 0.2865	4.28
293.15 K, x2 = 0.4032	3.037
293.15 K, x2 = 0.504	2.306
293.15 K, x2 = 0.5999	1.794
293.15 K, x2 = 0.6927	1.434
293.15 K, x2 = 0.8085	1.112
293.15 K, x2 = 0.8962	0.941
303.15 K, x1 = 0.00855	0.711
303.15 K, x2 = 0.03166	7.163
303.15 K, x2 = 0.1064	5.544
303.15 K, x2 = 0.1908	4.257
303.15 K, x2 = 0.2925	3.17
303.15 K, x2 = 0.4014	2.365
303.15 K, x2 = 0.5113	1.798
303.15 K, x2 = 0.62	1.39
303.15 K, x2 = 0.6981	1.173
303.15 K, x2 = 0.8041	0.949
303.15 K, x2 = 0.893	0.815
313.15 K, x1 = 0.00592	0.625
313.15 K, x2 = 0.06302	4.663
313.15 K, x2 = 0.1089	4.053
313.15 K, x2 = 0.1969	3.156
313.15 K, x2 = 0.301	2.399
313.15 K, x2 = 0.4008	1.879
313.15 K, x2 = 0.5098	1.458
313.15 K, x2 = 0.6011	1.199
313.15 K, x2 = 0.689	1.006
313.15 K, x2 = 0.8072	0.812
313.15 K, x2 = 0.8932	0.711

O=[N+]([O-])c1ccccc1O + CN1CCC[C@H]1c1cccnc1
viscosity [mPa·s], 101.33 kPa
Conditions	308.15 K	323.15 K
x2 = 0.102	–	2.724
x2 = 0.1563	5.072	3.073
x2 = 0.2019	5.996	3.527
x2 = 0.302	7.601	4.122
x2 = 0.3189	7.832	4.24
x2 = 0.3345	8.011	4.344
x2 = 0.3506	8.004	4.389
x2 = 0.3662	7.982	4.388
x2 = 0.4077	7.889	4.362
x2 = 0.5005	7.375	4.12
x2 = 0.603	6.569	3.83
x2 = 0.6988	5.676	3.421
x2 = 0.7988	4.612	2.927
x2 = 0.8937	3.86	2.523

CC(=O)N(C)C + CN(C)C=O
viscosity [mPa·s], 101 kPa
Conditions	298.15 K	308.15 K	318.15 K
x1 = 0.05	0.809	0.718	0.642
x1 = 0.1062	0.816	0.724	0.647
x1 = 0.15	0.822	0.729	0.652
x1 = 0.2171	0.831	0.737	0.658
x1 = 0.26	0.837	0.742	0.662
x1 = 0.3094	0.843	0.747	0.666
x1 = 0.35	0.849	0.752	0.67
x1 = 0.405	0.856	0.758	0.675
x1 = 0.455	0.863	0.763	0.679
x1 = 0.5042	0.87	0.769	0.684
x1 = 0.55	0.876	0.774	0.688
x1 = 0.6071	0.883	0.781	0.694
x1 = 0.655	0.89	0.786	0.698
x1 = 0.714	0.898	0.793	0.704
x1 = 0.75	0.903	0.797	0.707
x1 = 0.7968	0.909	0.803	0.712
x1 = 0.85	0.916	0.809	0.717
x1 = 0.9112	0.925	0.816	0.723
x1 = 0.95	0.93	0.82	0.727
